Experimental data from patent US20020091095A1, “Modulation of Fas and FasL expression” (priority 1999, published 2002).

How the values were obtained:
[1] = tested on: EL-4 murine T lymphoma cells; assay: EL-4 murine T lymphoma implanted in C57/BL6 lpr/lpr mice; format: in vivo
Method: EL-4 murine T lymphoma cells are implanted into C57/BL6 lpr/lpr (Fas negative mice). The mice are divided into 30 groups of 10 mice. On day 0, group 1 mice receive saline, group 2 mice receive 1, 10 or 100 mg/kg of SEQ. ID NO:5, group 3 mice receive 1, 10 or 100 mg/kg of SEQ. ID NO:16, group 4 receive 1, 10 or 100 mg/kg of SEQ. ID NO:17, group 5 mice receive 1, 10 or 100 mg/kg of SEQ. ID NO: 18, group 6 mice receive anti-Fas antibodies, group 7 mice receive 1, 10 or 100 mg/kg of SEQ. ID NO:5 +anti-Fas antibodies, group 8 mice receive 1, 10 or 100 mg/kg of SEQ. ID NO: 16 +anti-Fas antibodies, group 9 receive 1, 10 or 100 mg/kg of SEQ. ID NO:17 +anti-Fas antibodies, group 10 mice receive 1, 10 or 100 mg/kg of SEQ. ID NO:18 +anti-Fas antibodies. In these different groups, anti-Fas antibodies are administered at any dose in the range of about 0.003 to about 0.3 mg/kg. […] The efficacy of the SEQ. ID NO:5, the SEQ. ID NO: 16 and the SEQ. ID NO: 17 is dose-dependent.

EAE = EAE in (SJL/J×PL/J) F1 mice induced with myelin basic protein; format: in vivo
Method: Female (SJL/J×PL/J) F1 mice are injected subcutaneously in both femoral regions with an emulsion containing 0.5 mg of myelin basic protein (MBP) mixed with complete Freund's adjuvant. After 24 h, 400 ng of Bordetella pertussis toxin is administered intraperitoneally. On the day of onset (day 0), group 1 mice receive saline, group 2 mice receive 1, 10 or 100 mg/kg of SEQ. ID NO:5, group 3 mice receive 1, 10 or 100 mg/kg of SEQ. ID NO:16, group 4 mice receive 1, 10 or 100 mg/kg of SEQ. ID NO:17, group 5 mice receive 1, 10 or 100 mg/kg of SEQ. ID NO: 18, group 6 mice receive anti-Fas antibodies, group 7 mice receive 1, 10 or 100 mg/kg of SEQ. ID NO:5 +anti-Fas antibodies, group 8 mice receive 1, 10 or 100 mg/kg of SEQ. ID NO:16 +anti-Fas antibodies, group 9 receive 1, 10 or 100 mg/kg of SEQ. ID NO:17 +anti-Fas antibodies, group 10 mice receive 1, 10 or 100 mg/kg of SEQ. ID NO: 18 +anti-Fas antibodies for 3 days by intracistemal administration (20 μg/day). In these different groups, anti-Fas antibodies are administered at any dose in the range of about 0.003 to about 0.3 mg/kg. […] The efficacy of the SEQ. ID NO:5, the SEQ. ID NO: 16 and the SEQ. ID NO: 17 is dose-dependent.

## GGGTGG [SEQ ID NO:5]
[1]; 1, 10 or 100 mg/kg
  efficacy, dose dependence: dose-dependent
[1]; sequence 1, 10 or 100 mg/kg + anti-Fas antibodies, vs all other groups
  tumor mass: least tumor mass
[1]; single agent (sequence 1, 10 or 100 mg/kg, or anti-Fas antibodies) vs group 1 (saline)
  tumor mass: less tumor mass
EAE; 1, 10 or 100 mg/kg
  efficacy, dose dependence: dose-dependent
EAE; sequence 1, 10 or 100 mg/kg + anti-Fas antibodies, for 3 days
  progression of EAE: least progression of EAE
